{
  "source": "patent US20050014751A1",
  "about": "“Use of n-acyl homoserine lactones for the treatment of insulitis” (priority 2001, published 2005)",
  "key": {"[1]": {"test_system": "delayed type hypersensitivity response to SRBCs in Balb/c mice", "test": "Murine in vivo DTH response to SRBCs (footweight), oral OdDHL", "conditions": "Balb/c mice immunised with 5×10^6 SRBCs", "description": "Eight week old, female Balb/c mice were kept on a 12 hour light/dark cycle and fed food and water ad libitum. SRBCs in Alseviers solution (TCS Biologicals, SB069) were washed and centrifuged (800×g for 20 minutes at room temperature) three times with 0.9% NaCl in distilled water. Cells were counted using a haemocytometer. On day 0 animals were immunised intraperitoneally (IP) with 5×10^6 (low dose) or 5×10^8 (high dose) SRBCs in saline. On day 5, animals were challenged with 20 μl SRBCs at 5×10^9/ml in the left hind paw. The contralateral paw was injected with 20 μl saline alone. After 24 hours the animals were sacrificed with a rising concentration of CO2 and bled by cardiac puncture. The hind feet were severed at the ankle joint and weighed.\nAnimals were dosed po from day 0 to day 5 with OdDHL. OdDHL was suspended in 0.25% (wt/vol) cellosize (Boots Co. PLC, Nottingham UK) in distilled water containing 1.5% (vol/vol) Tween 80 (Registered Trade Mark, Sigma) for po dosing at 3, 10, 30 and 100 mg/kg. Animals received 0.1 ml po.\nThis manifests itself as an inflammatory response causing an increase in the size of the foot. Very little antibody is produced. OdDHL at 3, 10, 30 and 100 mg/kg caused a dose dependent increase in footweight of 37%, 60%, 100% and 93% respectively (see FIG. 5). Mice dosed with OdDHL had higher footweights when compared to vehicle dosed animals. The 30 and 100 mg/kg doses (** on graph) are significant as determined by Dunnett's multiple comparison's test after one-way analysis of variance (p<0.01). This assay is considered by the pharmaceutical industry to be […] dependent, indicating the effect of compound treatment on contra-regulating T-helper 1 lymphocytes."}, "[2]": {"test_system": "murine splenocytes", "test": "ConA mitogen-stimulated proliferation of murine splenocytes", "assay_type": "cell-based, BALB/c mice", "conditions": "ConA 1 μg/ml, 100,000 spleen cells, 1 mM to 0.1 μM", "description": "The concanavalin A (ConA) cell proliferation assay was used to assess the effect of homoserine lactone (HSL) compounds on T-cell activation and proliferation. Proliferation was assessed by the incorporation of [^3H]-thymidine into DNA. Eight-week-old female BALB/c mice were obtained from Harlan (Bicester, Oxon, UK) and given food and water ad libitum. Splenocyte suspensions were prepared by removing the spleens and placing them into. RPMI 1640 medium. The spleens were forced through 70-μm-pore-size wire gauzes using the plunger from a 5-ml syringe to produce a single cell suspension. The cells were pelleted by centrifugation, and erythrocytes were lysed with 0.017M Tris, 0.144M ammonium chloride buffer, pH 7.2. Leucocytes were washed twice with RPMI 1640 medium with 2% (vol/vol) foetal calf serum (FCS) and resuspended in complete cell culture medium (CTCM) consisting of RPMI 1640 medium with 5% FCS, 2 mM L-glutamine, and 5×10^−5 M 2-mercaptoethanol. […] After the addition of 25 μl of MicroScint-O (Packard) to each well the filters were counted with the Packard TopCount scintillation counter. […]\n(§1) In the cell culture assays the number of cells used (mouse splenocytes and human PBMC) was initially optimised to 100,000 cells per well. The optimal dose of ConA of 1 μg/ml used in the cell proliferation assays was determined from ConA titration curves. […]"}, "[3]": {"test_system": "human PBMC", "test": "ConA mitogen-stimulated proliferation of human PBMC", "assay_type": "cell-based", "conditions": "ConA 1 μg/ml, 100,000 PBMC", "description": "Blood specimens were obtained with consent from healthy human volunteers. Human peripheral blood mononuclear cells (PBMC) were isolated from heparinised whole blood by buoyant density centrifugation over Histopaque 1077 (Sigma, Poole, UK) at 600 g for 20 minutes. PBMC harvested from the ‘buffy’ layers were washed twice with RPMI 1640 medium and resuspended in CTCM. HSL compounds were tested at similar dilutions as for murine splenocytes in 200 μl of CTCM, containing 1 μg/ml of ConA and 100,000 PBMC. Human PBMC were incubated for 48 h at 37° C. in 5% CO2-air, followed by pulsing with 0.25 μCi [^3H]-thymidine (see above). After a further incubation of 24 h cells were harvested onto fibreglass filters and then counted in the presence of MicroScint-O with the Packard TopCount.\nConcanavalin induced cell proliferation of human peripheral blood mononuclear cells (PBMC) was tracked, as described in I above, by a measurement of counts per minute using the scintillation counter. The inhibitory effect of an HSL compound being tested on cell proliferation was indicated by a reduction in counts per minute. […]\nas §1"}, "[4]": {"test_system": "NOD mice", "test": "Comparative immune toxicity assessment in NOD mice", "assay_type": "in vivo", "description": "The overt immune toxicity of OdDHL was investigated using the dose regime described above in Example 5 for the alleviation of insulitis or diabetes in NOD mice. […] Splenocytes from the mice were taken along the time course of treatment (3 times a week for 4 weeks) and were stained with anti-CD-3 (pan T-cell), anti-CD4 (helper T-cell), anti-CD8 (cytotoxic T-cell) and anti-CD19 (B cell) antibodies for 30 minutes on ice. Cells were washed twice in PBS/BSA and then fixed in 0.5% formaldehyde. Cell phenotypes were analysed on BD FACScan."}, "[5]": {"test_system": "diabetes in NOD mice", "test": "Alleviation of diabetes in NOD mice (incidence of diabetes, Uristix)", "assay_type": "in vivo", "conditions": "above 6 mMol glucose/l = diabetes", "description": "The ability of the lead compound (OdDHL) to alleviate diabetes in NOD mice was determined by treating the mice 3 times per week for 4 weeks at 30 mg/kg as above. DMSO and OHHL were used as controls.\nDiabetes was diagnosed using Uristix and a level of above 6 mMol glucose/I was taken to indicate the presence of diabetes."}, "[6]": {"test": "Comparative assay performed in vivo (OdDHL vs CSA and dexamethasone)", "conditions": "compared with CSA and dexamethasone", "excerpt": "From this it is believed that a similar result will be achieved for insulitis."}},
  "data": [
    {"smiles": "CCCCCCCCCC(=O)CC(=O)N[C@H]1CCOC1=O", "note": "[OdDHL, N-(3-oxododecanoyl)-L-homoserine Lactone]", "values": [
      {"measurement": "increase in footweight", "setting": "[1]; 3 mg/kg po day 0 to day 5, vs vehicle", "result": 37, "unit": "%"},
      {"measurement": "increase in footweight", "setting": "[1]; 10 mg/kg po day 0 to day 5, vs vehicle", "result": 60, "unit": "%"},
      {"measurement": "increase in footweight", "setting": "[1]; 30 mg/kg po day 0 to day 5, vs vehicle, p<0.01", "result": 100, "unit": "%"},
      {"measurement": "increase in footweight", "setting": "[1]; 100 mg/kg po day 0 to day 5, vs vehicle, p<0.01", "result": 93, "unit": "%"},
      {"measurement": "inhibition of splenocyte proliferation ([3H]-thymidine cpm, FIG. 6)", "setting": "[2]", "result": "inhibits splenocyte proliferation"},
      {"measurement": "inhibition of proliferation of human PBMC ([3H]-thymidine cpm, FIG. 7)", "setting": "[3]", "result": "inhibited proliferation"},
      {"measurement": "overt immune toxicity (CD3, CD4, CD8, CD19 splenocyte populations, FACScan, FIG. 12)", "setting": "[4]; 3 times a week for 4 weeks", "result": "lack of overt immune toxicology"},
      {"measurement": "body weight gain of treated mice", "setting": "[4]; dose regime of Example 5, vs non-treated littermates", "result": "gained weight identically to their non-treated littermates"},
      {"measurement": "incidence of diabetes", "setting": "[5]; Week of Experiment 20, 30 mg/kg 3 times per week for 4 weeks", "result": "0/11"},
      {"measurement": "incidence of diabetes", "setting": "[5]; Week of Experiment 30, 30 mg/kg 3 times per week for 4 weeks, week 30 of experiment", "result": "5/20"},
      {"measurement": "comparative performance in vivo", "setting": "[6]", "result": "performed better than CSA and dexamethasone"}
    ]}
  ]
}
